Source: the NIST ThermoML archive (doi:10.1016/j.jct.2019.03.005)

Conditions: Liquid, Frequency=3 MHz, Pulse-echo method

CC(C)c1ccccc1 [isopropylbenzene]
speed of sound [m/s]
Conditions	298.15 K	313.15 K	333.15 K	353.15 K	373.15 K	393.15 K	413.15 K	433.15 K
100 kPa	1309.1	1247.6	1168.5	1091.8	1017.8	945.6	875	–
10100 kPa	–	–	–	–	–	–	–	897.7
20100 kPa	1406.9	1351.3	1280.5	1213.2	1149.2	1088.1	1029.6	974
40100 kPa	1491.7	1440	1374.7	1313.2	1255.1	1200.1	1147.8	1098.9
60100 kPa	1566.8	1518.3	1457.2	1399.6	1345.6	1294.7	1246.5	1201.3
80100 kPa	1634.8	1588.9	1530.9	1476.5	1425.6	1377.6	1332.1	1289.9
100100 kPa	1697.4	1653.3	1598	1546	1497.4	1451.6	1408.6	1368.6

CC(C)(C)c1ccccc1 [(1,1-dimethylethyl)benzene]
speed of sound [m/s]
Conditions	298.15 K	313.15 K	333.15 K	353.15 K	373.15 K	393.15 K	413.15 K	433.15 K
100 kPa	1316.4	1255.3	1176.9	1101.8	1029.9	959.3	890.9	823.7
20100 kPa	1415.8	1360.3	1290.1	1223.5	1161.2	1101.1	1042.6	987.2
40100 kPa	1501.7	1450.3	1385.4	1324.4	1267.7	1213.3	1161.1	1112.1
60100 kPa	1578.5	1529.8	1469	1411.8	1359	1308.5	1260.2	1215.1
80100 kPa	1647.9	1601.7	1543.9	1489.6	1439.6	1392	1346.6	1304.3
100100 kPa	1711.7	1667.3	1612.5	1560.2	1512.4	1466.9	1423.8	1383.6
